Results from US20090082203A1, “INSECTICIDAL BIS(SUBSTITUTED PHENYL)-1-{[4-(SATURATED HETEROCYCLYL-SUBSTITUTED)PHENYLMETHYL]- (4-PIPERIDYL)}METHANE DERIVATIVES” (priority 2004, published 2009).

System: tobacco budworm (Heliothis virescens [Fabricius])
Experiment: surface-treated diet test against tobacco budworm
Type: in vivo
Conditions: 0.25 millimolar on the surface of the diet, second instar larvae, five-day exposure; for Percent Mortality: compared to the total number of insects infested; for Percent Growth Inhibition: inhibition of insect weight relative to untreated controls
Protocol: Candidate insecticides were evaluated for activity against the tobacco budworm (Heliothis virescens [Fabricius]) in a surface-treated diet test.
In this test one mL of molten (65-70° C.) wheat germ-based artificial diet was pipetted into each well of a four by six (24 well) multi-well plate (ID# 430345-15.5 mm dia.×17.6 mm deep; Corning Costar Corp., One Alewife Center, Cambridge, Mass. 02140). The diet was allowed to cool to ambient temperature before treatment with candidate insecticide.
For a determination of insecticidal activity, solutions of the candidate insecticides were prepared for testing using a Packard 204DT Multiprobe® Robotic System (Packard Instrument Company, 800 Research Parkway, Meriden, Conn. 06450), in which the robot first diluted a standard 50 millimolar DMSO solution of candidate insecticide with a 1:1 water/acetone solution (V/V) in a ratio of 1:7 stock solution to water/acetone. The robot subsequently pipetted 40 microliters of the so-prepared solution onto the surface of the diet in each of three wells in the 24 multi-well plate. The process was repeated with solutions of seven other candidate insecticides. Once treated, the contents of the multi-well plate were allowed to dry, leaving 0.25 millimoles of candidate insecticide on the surface of the diet, or a concentration of 0.25 millimolar. Appropriate untreated controls containing only DMSO on the diet surface were also included in this test.
For evaluations of the insecticidal activity of a candidate insecticide at varying rates of application, the test was established as described above using sub-multiples of the standard 50 millimolar DMSO solution of candidate insecticide. For example, the standard 50 millimolar solution was diluted by the robot with DMSO to give 5, 0.5, 0.05, 0.005, 0.0005 millimolar, or more dilute solutions of the candidate insecticide. In these evaluations there were six replicates of each rate of application placed on the surface of the diet in the 24 multi-well plate, for a total of four rates of application of candidate insecticide in each plate.
In each well of the test plate was placed one second instar tobacco budworm larvae, each weighing approximately five milligrams. After the larvae were placed in each well, the plate was sealed with clear polyfilm adhesive tape. The tape over each well was perforated to ensure an adequate air supply. The plates were then held in a growth chamber at 25° C. and 60% relative humidity for five days (light 14 hours/day).
After the five-day exposure period insecticidal activity for each rate of application of candidate insecticide was assessed as percent inhibition of insect weight relative to the weight of insects from untreated controls, and percent mortality when compared to the total number of insects infested.
The test compounds of formula I are identified by numbers that correspond to those in Table 1.

Compound	Percent Mortality [%]	Percent Growth Inhibition [%]
CN(C)C(=O)N1CCSC1c1ccc(CN2CCC(C(O)(c3ccc(OC(F)(F)F)cc3)c3ccc(OC(F)(F)F)cc3)CC2)cc1 (stereo not shown) [Compound 73]	100	100
CCCC1COC(c2ccc(C[N+]3([O-])CCC(C(O)(c4ccc(OC(F)(F)F)cc4)c4ccc(OC(F)(F)F)cc4)CC3)cc2)O1 (stereo not shown) [Compound 74]	100	100
CC1(C)OCC(c2ccc(CN3CCC(C(O)(c4ccc(OC(F)(F)F)cc4)c4ccc(OC(F)(F)F)cc4)CC3)cc2)O1 (stereo not shown) [Compound 76]	100	100
CC1(C)OCC(c2ccc(C[N+]3([O-])CCC(C(O)(c4ccc(OC(F)(F)F)cc4)c4ccc(OC(F)(F)F)cc4)CC3)cc2)O1 (stereo not shown) [Compound 77]	100	100
CC1CC(C)(C)OC(c2ccc(CN3CCC(C(O)(c4ccc(OC(F)(F)F)cc4)c4ccc(OC(F)(F)F)cc4)CC3)cc2)O1 (stereo not shown) [Compound 78]	100	100
[O-][N+]1(Cc2ccc(C3OCCC(c4ccccc4)O3)cc2)CCC(C(O)(c2ccc(OC(F)(F)F)cc2)c2ccc(OC(F)(F)F)cc2)CC1 (stereo not shown) [Compound 79]	100	100
CC1CC(C)(C)OC(c2ccc(C[N+]3([O-])CCC(C(O)(c4ccc(OC(F)(F)F)cc4)c4ccc(OC(F)(F)F)cc4)CC3)cc2)O1 (stereo not shown) [Compound 80]	100	100
OC(c1ccc(OC(F)(F)F)cc1)(c1ccc(OC(F)(F)F)cc1)C1CCN(Cc2ccc(C3(c4ccc(Cl)nc4)OCCO3)cc2)CC1 [Compound 83]	0	31
OC(c1ccc(OC(F)(F)F)cc1)(c1ccc(OC(F)(F)F)cc1)C1CCN(Cc2ccc(C3(c4cccc(Cl)c4)OCCO3)cc2)CC1 [Compound 85]	100	100
C=CC1COC(c2ccc(C[N+]3([O-])CCC(C(O)(c4ccc(OC(F)(F)F)cc4)c4ccc(OC(F)(F)F)cc4)CC3)cc2)O1 (stereo not shown) [Compound 86]	100	100
[O-][N+]1(Cc2ccc(C3(c4ccc(Cl)nc4)OCCO3)cc2)CCC(C(O)(c2ccc(OC(F)(F)F)cc2)c2ccc(OC(F)(F)F)cc2)CC1 (stereo not shown) [Compound 87]	17	79
COC(=O)N1CCSC1c1ccc(CN2CCC(C(O)(c3ccc(OC(F)(F)F)cc3)c3ccc(OC(F)(F)F)cc3)CC2)cc1 (stereo not shown) [Compound 89]	100	100
CN1CCOC1c1ccc(CN2CCC(C(O)(c3ccc(OC(F)(F)F)cc3)c3ccc(OC(F)(F)F)cc3)CC2)cc1 (stereo not shown) [Compound 90]	100	100
C=CCOCC1COC(c2ccc(CN3CCC(C(O)(c4ccc(OC(F)(F)F)cc4)c4ccc(OC(F)(F)F)cc4)CC3)cc2)O1 (stereo not shown) [Compound 91]	100	100
OC(c1ccc(OC(F)(F)F)cc1)(c1ccc(OC(F)(F)F)cc1)C1CCN(Cc2ccc(C3OCC(COc4ccccc4)O3)cc2)CC1 (stereo not shown) [Compound 92]	100	100
C=CCOCC1COC(c2ccc(C[N+]3([O-])CCC(C(O)(c4ccc(OC(F)(F)F)cc4)c4ccc(OC(F)(F)F)cc4)CC3)cc2)O1 (stereo not shown) [Compound 93]	100	100
[O-][N+]1(Cc2ccc(C3OCC(COc4ccccc4)O3)cc2)CCC(C(O)(c2ccc(OC(F)(F)F)cc2)c2ccc(OC(F)(F)F)cc2)CC1 (stereo not shown) [Compound 94]	100	100
O=C(NCC1COC(c2ccc(CN3CCC(C(O)(c4ccc(OC(F)(F)F)cc4)c4ccc(OC(F)(F)F)cc4)CC3)cc2)O1)OCc1ccccc1 (stereo not shown) [Compound 95]	100	100
CC(C)N1CCOC1c1ccc(CN2CCC(C(O)(c3ccc(OC(F)(F)F)cc3)c3ccc(OC(F)(F)F)cc3)CC2)cc1 (stereo not shown) [Compound 97]	50	100

Compound	Percent Mortality [%]	Percent Growth Inhibition [%]
CCCCN1CCOC1c1ccc(CN2CCC(C(O)(c3ccc(OC(F)(F)F)cc3)c3ccc(OC(F)(F)F)cc3)CC2)cc1 (stereo not shown) [Compound 98]	100	100
OC(c1ccc(OC(F)(F)F)cc1)(c1ccc(OC(F)(F)F)cc1)C1CCN(Cc2ccc(C3(c4ccoc4)OCCO3)cc2)CC1 [Compound 99]	100	100
[O-][N+]1(Cc2ccc(C3(c4ccoc4)OCCO3)cc2)CCC(C(O)(c2ccc(OC(F)(F)F)cc2)c2ccc(OC(F)(F)F)cc2)CC1 (stereo not shown) [Compound 101]	100	100
OC(c1ccc(OC(F)(F)F)cc1)(c1ccc(OC(F)(F)F)cc1)C1CCN(Cc2ccc(C3COCO3)cc2)CC1 (stereo not shown) [Compound 103]	100	100
[O-][N+]1(Cc2ccc(C3COCO3)cc2)CCC(C(O)(c2ccc(OC(F)(F)F)cc2)c2ccc(OC(F)(F)F)cc2)CC1 (stereo not shown) [Compound 104]	100	100
[O-][N+]1(Cc2ccc(C3OCC4OC4CO3)cc2)CCC(C(O)(c2ccc(OC(F)(F)F)cc2)c2ccc(OC(F)(F)F)cc2)CC1 (stereo not shown) [Compound 105]	100	100
NC1(CO)COC(c2ccc(CN3CCC(C(O)(c4ccc(OC(F)(F)F)cc4)c4ccc(OC(F)(F)F)cc4)CC3)cc2)OC1 (stereo not shown) [Compound 107]	100	100
OC(c1ccc(OC(F)(F)F)cc1)(c1ccc(OC(F)(F)F)cc1)C1CCN(Cc2ccc(C3OCC(CN4CCCC4)O3)cc2)CC1 (stereo not shown) [Compound 108]	33	97
[O-][N+]1(Cc2ccc(C3OCC(CN4CCCC4)O3)cc2)CCC(C(O)(c2ccc(OC(F)(F)F)cc2)c2ccc(OC(F)(F)F)cc2)CC1 (stereo not shown) [Compound 110]	100	100
CC1(C)COC(c2ccc(CN3CCC(C(O)(c4ccc(OC(F)(F)F)cc4)c4ccc(OC(F)(F)F)cc4)CC3)cc2)O1 (stereo not shown) [Compound 111]	100	100
CC1(C)COC(c2ccc(C[N+]3([O-])CCC(C(O)(c4ccc(OC(F)(F)F)cc4)c4ccc(OC(F)(F)F)cc4)CC3)cc2)O1 (stereo not shown) [Compound 112]	100	100
OC(c1ccc(OC(F)(F)F)cc1)(c1ccc(OC(F)(F)F)cc1)C1CCN(Cc2ccc(C3O[C@H]4CCCC[C@H]4O3)cc2)CC1 (stereo partly shown) [Compound 115]	100	100
OC(c1ccc(OC(F)(F)F)cc1)(c1ccc(OC(F)(F)F)cc1)C1CCN(Cc2ccc(C3O[C@H]4COC[C@H]4O3)cc2)CC1 (stereo partly shown) [Compound 116]	100	100
[O-][N+]1(Cc2ccc(C3O[C@H]4CCCC[C@H]4O3)cc2)CCC(C(O)(c2ccc(OC(F)(F)F)cc2)c2ccc(OC(F)(F)F)cc2)CC1 (stereo partly shown) [Compound 117]	100	100
[O-][N+]1(Cc2ccc(C3O[C@H]4COC[C@H]4O3)cc2)CCC(C(O)(c2ccc(OC(F)(F)F)cc2)c2ccc(OC(F)(F)F)cc2)CC1 (stereo partly shown) [Compound 118]	100	100
OC(c1ccc(OC(F)(F)F)cc1)(c1ccc(OC(F)(F)F)cc1)C1CCN(Cc2ccc(C3O[C@H]4CCC[C@H]4O3)cc2)CC1 (stereo partly shown) [Compound 119]	100	100
CC1OC(c2ccc(CN3CCC(C(O)(c4ccc(OC(F)(F)F)cc4)c4ccc(OC(F)(F)F)cc4)CC3)cc2)OC1C (stereo not shown) [Compound 121]	100	100
CC1(C)OC(c2ccc(CN3CCC(C(O)(c4ccc(OC(F)(F)F)cc4)c4ccc(OC(F)(F)F)cc4)CC3)cc2)OC1(C)C [Compound 122]	100	100
[O-][N+]1(Cc2ccc(C3O[C@H]4CCC[C@H]4O3)cc2)CCC(C(O)(c2ccc(OC(F)(F)F)cc2)c2ccc(OC(F)(F)F)cc2)CC1 (stereo partly shown) [Compound 123]	100	100
